Source: PubChem BioAssay AID248 (DTP/NCI, 2004)
Inconclusive results and toxic doses are left out. No stated cut-off is given here; in the data, active means T/C of 150% or more; inactive means T/C below 125%.

Test system: L1210 leukemia ip in BDF1 mice, survival T/C
Experiment: NCI In Vivo Anticancer Drug Screen. Data for tumor model L1210 Leukemia (intraperitoneal) in B6D2F1 (BDF1) mice
Details: endpoint: mean survival time, higher = longer survival
Outline: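 Survival endpoint. Drug-treated group vs vehicle group, expressed as T divided by C. Tumor passaged by transplantation.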

[1] = dose: 6.25 mg/kg/injection, schedule: Q01DX009 (ip), vehicle: saline
[2] = dose: 12.5 mg/kg/injection, schedule: Q01DX009 (ip), vehicle: saline
[3] = dose: 50.0 mg/kg/injection, schedule: Q01DX009 (ip), vehicle: saline
[4] = dose: 100.0 mg/kg/injection, schedule: Q01DX009 (ip), vehicle: saline
[5] = dose: 100.0 mg/kg/injection, schedule: Q01DX009 (ip), vehicle: saline with Tween-80
[6] = dose: 100.0 mg/kg/injection, schedule: Q04DX003 (ip), vehicle: saline with Tween-80
[7] = dose: 200.0 mg/kg/injection, schedule: Q04DX003 (ip), vehicle: saline with Tween-80
[8] = dose: 400.0 mg/kg/injection, schedule: Q04DX003 (ip), vehicle: saline with Tween-80
[9] = dose: 100.0 mg/kg/injection, schedule: Q04DX003 (ip), vehicle: other
[10] = dose: 200.0 mg/kg/injection, schedule: Q04DX003 (ip), vehicle: other
[11] = dose: 100.0 mg/kg/injection, schedule: Q01DX001 (ip), vehicle: saline with Tween-80
[12] = dose: 400.0 mg/kg/injection, schedule: Q01DX001 (ip), vehicle: saline with Tween-80
[13] = dose: 25.0 mg/kg/injection, schedule: Q01DX009 (ip), vehicle: saline with Tween-80

Measured: T/C

CCCCCCCCCCCC[N+](C)(C)C (tested in a mixture with another compound)
inactive: dose: 1.25 mg/kg/injection, schedule: Q01DX015 (ip), vehicle: saline 101 % of control | dose: 2.5 mg/kg/injection, schedule: Q01DX015 (ip), vehicle: saline 95 % of control | dose: 3.12 mg/kg/injection, schedule: Q01DX009 (ip), vehicle: saline 92 % of control | dose: 3.12 mg/kg/injection, schedule: Q04DX003 (ip), vehicle: saline 98 % of control | dose: 5.0 mg/kg/injection, schedule: Q01DX015 (ip), vehicle: saline 101 % of control | dose: 5.0 mg/kg/injection, schedule: Q04DX003 (ip), vehicle: saline 107 % of control | [1] 94 % of control | dose: 6.25 mg/kg/injection, schedule: Q04DX003 (ip), vehicle: saline 98 % of control | dose: 10.0 mg/kg/injection, schedule: Q01DX015 (ip), vehicle: saline 98 % of control | dose: 10.0 mg/kg/injection, schedule: Q04DX003 (ip), vehicle: saline 112 % of control | [2] 105 % of control | dose: 12.5 mg/kg/injection, schedule: Q04DX003 (ip), vehicle: saline 95 % of control | dose: 18.0 mg/kg/injection, schedule: Q01DX009 (ip), vehicle: saline 90 % of control | dose: 20.0 mg/kg/injection, schedule: Q01DX015 (ip), vehicle: saline 98 % of control | dose: 20.0 mg/kg/injection, schedule: Q04DX003 (ip), vehicle: saline 93 % of control | dose: 37.5 mg/kg/injection, schedule: Q01DX001 (ip), vehicle: saline 101 % of control | dose: 40.0 mg/kg/injection, schedule: Q01DX015 (ip), vehicle: saline 100 % of control | dose: 40.0 mg/kg/injection, schedule: Q04DX003 (ip), vehicle: Klucel (hydroxypropylcellulose) (HPC) 90 % of control

Clc1ccccc1OCCNC1CC1
inactive: [1] 101 % of control | [2] 105 % of control | dose: 25.0 mg/kg/injection, schedule: Q01DX009 (ip), vehicle: saline 97 % of control | dose: 25.0 mg/kg/injection, schedule: Q04DX003 (ip), vehicle: saline 102 % of control | [3] 103 % of control | dose: 50.0 mg/kg/injection, schedule: Q04DX003 (ip), vehicle: saline 100 % of control | [4] 105 % of control | dose: 100.0 mg/kg/injection, schedule: Q04DX003 (ip), vehicle: saline 102 % of control

O=C(Nc1ccc([N+](=O)[O-])cc1Cl)N(CCO)C1CCCCC1
inactive: [5] 96 % of control | [6] 102 % of control | dose: 200.0 mg/kg/injection, schedule: Q01DX009 (ip), vehicle: saline with Tween-80 106 % of control | [7] 101 % of control | dose: 400.0 mg/kg/injection, schedule: Q01DX009 (ip), vehicle: saline with Tween-80 116 % of control | [8] 90 % of control

Cn1nnc2c1C(=O)c1ccccc1C2=O
inactive: [9] 97 % of control | [10] 97 % of control

Cc1n(CCBr)c([N+](=O)[O-])c[n+]1C1N=C(c2ccccc2Cl)c2cc(Cl)ccc2NC1=O (centres undefined)
inactive: dose: 50.0 mg/kg/injection, schedule: Q01DX009 (ip), vehicle: Klucel (hydroxypropylcellulose) (HPC) 86 % of control | dose: 200.0 mg/kg/injection, schedule: Q01DX009 (ip), vehicle: Klucel (hydroxypropylcellulose) (HPC) 89 % of control

Nc1ncnc(N)c1N=O
inactive: [3] 107 % of control | [4] 91 % of control | dose: 200.0 mg/kg/injection, schedule: Q01DX009 (ip), vehicle: saline 101 % of control

CN(C)CCN=Cc1[nH]c(=S)[nH]c(=O)c1CCc1ccccc1
inactive: [11] 93 % of control | dose: 200.0 mg/kg/injection, schedule: Q01DX001 (ip), vehicle: saline with Tween-80 97 % of control | [12] 95 % of control

O=C(Cn1cc[n+](CC(=O)c2ccccc2)c1)c1ccccc1
inactive: [13] 98 % of control | dose: 50.0 mg/kg/injection, schedule: Q01DX009 (ip), vehicle: saline with Tween-80 90 % of control | [5] 102 % of control

CCOC(=S)c1ccc(S(=O)(=O)Nc2cccc3ccccc23)cc1
inactive: dose: 100.0 mg/kg/injection, schedule: Q01DX001 (ip), vehicle: Klucel (hydroxypropylcellulose) (HPC) 97 % of control | dose: 200.0 mg/kg/injection, schedule: Q01DX001 (ip), vehicle: Klucel (hydroxypropylcellulose) (HPC) 98 % of control | dose: 400.0 mg/kg/injection, schedule: Q01DX001 (ip), vehicle: Klucel (hydroxypropylcellulose) (HPC) 95 % of control

N#Cc1cccc2c(/C=N\NC(N)=S)nccc12
inactive: dose: 100.0 mg/kg/injection, schedule: Q04DX002 (ip), vehicle: Klucel (hydroxypropylcellulose) (HPC) 106 % of control | dose: 200.0 mg/kg/injection, schedule: Q04DX002 (ip), vehicle: Klucel (hydroxypropylcellulose) (HPC) 95 % of control | dose: 400.0 mg/kg/injection, schedule: Q04DX002 (ip), vehicle: Klucel (hydroxypropylcellulose) (HPC) 87 % of control

S=c1ccnc[nH]1
inactive: dose: 100.0 mg/kg/injection, schedule: Q01DX Z (ip), vehicle: methylcellulose (MC) 87 % of control | dose: 200.0 mg/kg/injection, schedule: Q01DX Z (ip), vehicle: methylcellulose (MC) 88 % of control

CN(C)N=Nc1ccccc1C(=O)O
inactive: dose: 0.78 mg/kg/injection, schedule: Q01DX009 (ip), vehicle: Klucel (hydroxypropylcellulose) (HPC) 105 % of control | dose: 1.56 mg/kg/injection, schedule: Q01DX009 (ip), vehicle: Klucel (hydroxypropylcellulose) (HPC) 97 % of control | dose: 3.12 mg/kg/injection, schedule: Q01DX009 (ip), vehicle: Klucel (hydroxypropylcellulose) (HPC) 103 % of control | dose: 6.25 mg/kg/injection, schedule: Q01DX009 (ip), vehicle: Klucel (hydroxypropylcellulose) (HPC) 103 % of control | dose: 11.0 mg/kg/injection, schedule: Q01DX009 (ip), vehicle: saline with Tween-80 109 % of control | dose: 12.5 mg/kg/injection, schedule: Q01DX001 (ip), vehicle: saline with Tween-80 95 % of control | dose: 12.5 mg/kg/injection, schedule: Q01DX009 (ip), vehicle: saline with Tween-80 123 % of control | dose: 12.5 mg/kg/injection, schedule: Q04DX003 (ip), vehicle: saline with Tween-80 101 % of control | dose: 17.0 mg/kg/injection, schedule: Q01DX009 (ip), vehicle: saline with Tween-80 107 % of control | dose: 25.0 mg/kg/injection, schedule: Q01DX001 (ip), vehicle: saline with Tween-80 98 % of control | [13] 115 % of control | dose: 25.0 mg/kg/injection, schedule: Q04DX003 (ip), vehicle: other 115 % of control | dose: 25.0 mg/kg/injection, schedule: Q04DX003 (ip), vehicle: saline with Tween-80 104 % of control | dose: 37.0 mg/kg/injection, schedule: Q01DX009 (ip), vehicle: saline with Tween-80 91 % of control | dose: 50.0 mg/kg/injection, schedule: Q01DX001 (ip), vehicle: saline with Tween-80 101 % of control | dose: 50.0 mg/kg/injection, schedule: Q04DX003 (ip), vehicle: other 105 % of control | dose: 50.0 mg/kg/injection, schedule: Q04DX003 (ip), vehicle: saline with Tween-80 103 % of control | [9] 111 % of control | [10] 113 % of control | dose: 400.0 mg/kg/injection, schedule: Q04DX003 (ip), vehicle: other 100 % of control

O=S1(=O)OC(c2ccccc2)(c2ccccc2)c2ccccc21
inactive: dose: 100.0 mg/kg/injection, schedule: Q01DX001 (ip), vehicle: carboxymethylcellulose (CMC) 100 % of control | dose: 200.0 mg/kg/injection, schedule: Q01DX001 (ip), vehicle: carboxymethylcellulose (CMC) 100 % of control | dose: 400.0 mg/kg/injection, schedule: Q01DX001 (ip), vehicle: carboxymethylcellulose (CMC) 100 % of control

CCCCCCCCCCCC(C1CCC(C)CC1)C1CCC(C)CC1 (centres undefined)
inactive: [11] 95 % of control | [12] 89 % of control

CC1C(C)(C)P(=O)(Oc2ccc3ccccc3c2)C1(C)C (centres undefined)
inactive: [6] 100 % of control | [7] 97 % of control | [8] 92 % of control

Cc1cc(=O)[nH]c2c(Cl)ccc(C(F)(F)F)c12
inactive: dose: 100.0 mg/kg/injection, schedule: Q01DX001 (ip), vehicle: other 94 % of control | dose: 200.0 mg/kg/injection, schedule: Q01DX001 (ip), vehicle: other 94 % of control | dose: 400.0 mg/kg/injection, schedule: Q01DX001 (ip), vehicle: other 114 % of control
